Measurements as given in PMC8602401 (Scientific Reports, 2021).
Where two headings read alike, the source gives them in different places. *1 amine or outer side, *2 acyl side, *3 side chain or, on linkers, in order; H or OH if unused. Where a SMILES comes first, the peptide text is derived from it. Side-chain parts run from the residue outwards. [ ]: non-standard residue; d: D form. The star is where a group is joined. γGlu = O=C(O)[C@H](CCC(=O)[*:2])N[*:1]; αMeF = C[C@](N)(Cc1ccccc1)C(=O)O; αMeK = C[C@](N)(CCCCN)C(=O)O; Lauroyl = CCCCCCCCCCCC(=O)*; αMeS = C[C@](N)(CO)C(=O)O; AEEA = NCCOCCOCC(=O)O; Aib = CC(C)(N)C(=O)O

Legend:
human GLP-1R = target: T1, human GLP-1R (Homo sapiens, UniProt P43220); experiment: cAMP accumulation assay in CHO cells stably expressing human GLP-1R; assay type: cell-based; conditions: geometric mean (SEM); for EC50: 30 min at room temperature, HTRF cAMP, n ≥ 3 independent experiments
T1 construct: expressed in transfected cells
T1 sequence (P43220 24-463): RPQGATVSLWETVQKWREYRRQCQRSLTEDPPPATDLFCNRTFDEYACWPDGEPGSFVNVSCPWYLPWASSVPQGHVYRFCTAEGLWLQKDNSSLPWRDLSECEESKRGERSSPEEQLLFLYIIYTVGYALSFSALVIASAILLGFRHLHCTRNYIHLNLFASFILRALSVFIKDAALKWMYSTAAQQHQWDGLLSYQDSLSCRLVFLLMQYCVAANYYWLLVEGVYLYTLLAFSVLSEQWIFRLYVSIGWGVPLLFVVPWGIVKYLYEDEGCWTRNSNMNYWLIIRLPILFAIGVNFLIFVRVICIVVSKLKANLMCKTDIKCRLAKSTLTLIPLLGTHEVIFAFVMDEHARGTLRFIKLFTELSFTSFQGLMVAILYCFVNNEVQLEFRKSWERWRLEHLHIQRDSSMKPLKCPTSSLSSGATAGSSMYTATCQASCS
Procedure: (§1) All reagents for cAMP assays were obtained from Sigma-Aldrich unless otherwise specified.
(§2) Cells were suspended in assay buffer and combined with serially diluted peptides at room temperature for 30 min. cAMP levels were measured using a cAMP dynamic 2 HTRF kit (Cisbio, Codolet, France), following the manufacturer’s two-step protocol, on an EnVision plate reader (PerkinElmer, Waltham, MA, USA). […] The transformed data were analyzed by four-parameter logistic fit to determine EC50 values using GraphPad Prism 6 (GraphPad Software, San Diego, CA, USA).

[1] = target: T2, GLP-1R (endogenously expressed, EndoC-βH1 cells) (Homo sapiens, UniProt P43220); experiment: cAMP accumulation assay in EndoC-βH1 human pancreatic β-cells; assay type: cell-based; conditions: geometric mean (SEM)
T2 construct: EndoC-βH1 human pancreatic β-cell line, which endogenously expresses GLP-1R; endogenous in cells; host or cells: EndoC-βH1 human pancreatic β-cells
T2 sequence (P43220 24-463): as above
Procedure: as §1, §2

[2] = EScalate equilibrium shift assay, rat plasma; assay type: in vitro ADME; conditions: rat; EScalate equilibrium shift, five dilutions of plasma in PBS, 1 h at room temperature, HPLC-QTOF MS; read-out: Fraction unbound peptide (%), rat
rat plasma protein = experiment: EScalate equilibrium shift assay, rat plasma; assay type: in vitro ADME; conditions: EScalate equilibrium shift assay
C57Bl/6 J mice = experiment: Acute food intake in C57Bl/6J mice; assay type: in vivo, mouse; conditions: versus placebo
Procedure: Male C57Bl/6 J mice 8–10 weeks of age (Jackson Laboratories, Bar Harbor, ME, USA) were single-housed in the BioDAQ (Research Diets, New Brunswick, NJ, USA) food monitoring system with ad libitum access to standard chow and water. Mice were randomized into groups of 6–9 per group on baseline 24-h food intake. On the first study day, mice were fasted for 6 h and then received a single subcutaneous dose of test peptide or placebo (50 mM Tris–HCl, 150 mM mannitol, 0.02% polysorbate 80; pH 8.0). Food intake was monitored over the next 48 h.

[3] = tested on: diet-induced obese (DIO) mouse model; experiment: Body weight, blood glucose and plasma insulin in diet-induced obese mouse model; assay type: in vivo; conditions: DIO mice
Procedure: Male 20-week-old C57Bl/6 J mice were single-housed for approximately 14 weeks with ad libitum access to water and 60% high-fat diet (D12492, Research Diets). Mice were randomized into groups of 12 mice per group on baseline body weight, 6 h fasting glucose and 6 h fasting insulin. Over 21 days, mice received daily subcutaneous injections of 10 nmol/kg of test peptides or placebo (50 mM Tris–HCl, 150 mM mannitol, 0.02% polysorbate 80; pH 8.0). Body weight was measured daily and fasting glucose and insulin levels were measured on day 14 following a 6-h fast. Blood was collected via tail-snip and glucose was measured with an Ascensia Breeze 2 glucometer (Bayer, Mishawaka, IN, USA). Insulin was measured in plasma using a Meso Scale rat/insulin kit (Meso Scale Discovery, Rockville, MD, USA).

[4] = 10 nmol/kg daily subcutaneous, day 14, n = 12 per group

CCCCCCCCCCCC(=O)N[C@@H](CCC(=O)NCCOCCOCC(=O)NCCOCCOCC(=O)NCCCC[C@H](NC(=O)[C@H](C)NC(=O)[C@@H](NC(=O)[C@](C)(Cc1ccccc1)NC(=O)[C@H](CCC(=O)O)NC(=O)[C@](C)(CCCCN)NC(=O)[C@H](C)NC(=O)[C@H](C)NC(=O)[C@H](CCC(=O)O)NC(=O)CNC(=O)[C@H](CCC(=O)O)NC(=O)[C@H](CC(C)C)NC(=O)[C@H](CCCCNC(=O)COCCOCCNC(=O)COCCOCCNC(=O)CC[C@H](NC(=O)CCCCCCCCCCC)C(=O)O)NC(=O)[C@H](CO)NC(=O)[C@](C)(CO)NC(=O)[C@@H](NC(=O)[C@H](CC(=O)O)NC(=O)[C@H](CO)NC(=O)[C@@H](NC(=O)[C@](C)(Cc1ccccc1)NC(=O)[C@H](CO)NC(=O)CNC(=O)[C@H](CCC(=O)O)NC(=O)C(C)(C)NC(=O)[C@@H](N)Cc1c[nH]cn1)[C@@H](C)O)C(C)C)[C@@H](C)CC)C(=O)N[C@H](C(=O)N[C@H](C(=O)N[C@@H](CCC(=O)O)C(=O)NCC(=O)NCC(N)=O)C(C)C)C(C)C)C(=O)O [MEDI7219] (H-H[Aib]EGS[αMeF]TSDV[αMeS]SK([AEEA-AEEA-γGlu-Lauroyl])LEGEAA[αMeK]E[αMeF]IAK([AEEA-AEEA-γGlu-Lauroyl])VVEGG-NH2)
CHO-hGLP-1R cAMP 0.1% BSA Effect at max. concentration (human GLP-1R; 0.1% BSA, % activation, 80 nM native GLP-1 defines maximum effect): 101.7 (0.5) %
EC50 (human GLP-1R; 4.4% HSA, read-out: CHO-hGLP-1R cAMP 4.4% HSA EC50): 0.398 nM
CHO-hGLP-1R cAMP 4.4% HSA Effect at max. concentration (human GLP-1R; 4.4% HSA, % activation, 80 nM native GLP-1 defines maximum effect): 94.3 (1.8) %
EC50 (human GLP-1R; CHO-hGLP-1R cAMP 0.1% BSA EC50, 0.1% BSA): 0.0034 nM
EC50 ([1]; 0.1% BSA, 30 min at room temperature, HTRF cAMP, n ≥ 3 independent experiments): 1.36 nM
Human EndoC-βH1 cAMP 0.1% BSA Effect at max. concentration ([1]; % activation, 80 nM native GLP-1 defines maximum effect): 97.5 (7.1) %
fraction unbound at 1 h [2]: 0.006
peptide bound to plasma proteins, rat (rat plasma protein): over 97%
24-hour food intake, decrease (↓) in Fig. 3a (C57Bl/6 J mice; subcutaneous 0.3 nmol/kg): 12.6%
24-hour food intake, decrease (↓) in Fig. 3a (C57Bl/6 J mice; subcutaneous 1 nmol/kg): 18.0%
24-hour food intake, decrease (↓) in Fig. 3a (C57Bl/6 J mice; subcutaneous 3 nmol/kg): 39.4%
Body weight change (%) ([3]; 10 nmol/kg daily subcutaneous over 21 days, n = 12 per group, Fig. 3b): −17.0%
body weight reduction after 21 days ([3]; 10 nmol/kg daily subcutaneous, 21 days, n = 12 per group): 17.0%
6-h fasting blood glucose – day 14 [3, 4]: 133.0 mg/dL
6-h fasting plasma insulin – day 14 [3, 4]: 0.74 ng/mL
